# In patent US10927089B2, “Diaryl thioether piperazine compounds, preparation methods and uses thereof” (SUNSHINE LAKE PHARMA CO., LTD., priority 2016, dated 2021):
# Experiment: Pharmacokinetic evaluation after intramuscular injection to rats
# Assay type: in vivo
# Conditions: im, male rat, solution, 17.5 mg/kg, vortioxetine in plasma
# Method: The LC/MS/MS system for analysis consists of the Agilent 1200 series vacuum degassing furnace, binary syringe pump, well plate autosampler, column incubator, and API4000 three-stage quadrupole mass spectrometer equipped with electro spray ionization (ESI) source.
# Waters XBridge™ C18, 2.1×30 mm, 3.5 μM column was used for analysis, and 20 μL of sample was injected. Analytical conditions: the mobile phase was (2 mM ammonium formate+0.1% formic acid) (A) and (methanol+2 mM ammonium formate+0.1% formic acid) (B). The flow rate was 0.5 mL/min.
# In addition, the API4000 Series LC/MS/MS spectrometer for analysis was equipped with a G1312A binary syringe pump, G1367A autosampler and MS/MS detector; ESI source was used in LC/MS/MS spectrometer. Each analyte was treated in a suitable cation model and optimally analyzed by MRM conversion with using standard solutions. Waters XBridge™ C18 was used during the analysis and the size was: 2.1×30 mm, 3.5 μM. The mobile phase was (2 mM ammonium formate+0.1% formic acid) (A) and (methanol+2 mM ammonium formate+0.1% formic acid) (B). The flow rate was 0.5 mL/min; the column temperature was maintained at 40° C.; 15 μL of sample was injected.
# The present invention evaluates the pharmacokinetic study of a series of compounds of the invention in rats. The compound of the present invention was added into a mixture formed by dissolving and dispersing Tween-20 and/or Span-20 in water after being subjected to a pretreatment such as grinding, sieving, etc., and was uniformly dispersed and fixed to a constant volume; the suspension was grinded by a ball mill, then administered. The animals were given a vortioxetine solution (17.5 mg/kg) and a suspension of vortioxetine compound (75 mg/kg) by intramuscular injection. After administration, whole blood was collected at 0.25, 1, 2, 5, 7, 24, 48, 72, 96, 120, 148, and 196 h, and plasma was separated and frozen for testing. And the plasma was centrifuge at 12,000 for 2 minutes. Plasma samples were collected and stored at −20° C. or −70° C. until LC/MS/MS analysis. […] The average drug-time curve of some of the compounds of the present invention after intramuscular injection in rats is shown in FIG. 1.
structure (smiles),measurement,setting,value
"Cc1ccc(Sc2ccccc2N2CCNCC2)c(C)c1 [WTXT, Vortioxetine]",AUC(0-t),read-out: Exposure level AUClast,1370 ng·h/mL
same,half-life,read-out: Half-life period T1/2 (converted),2.74 h
same,Cmax,read-out: Peak concentration Cmax,530 ng/mL
same,Tmax,read-out: Time to peak Tmax,0.25 h
